# In US20240277708A1, “Use of [1,2,4] Triazolo [4,3-B] Pyridazine Derivative For Preventing and Treating Senescence and Senescence-Related Diseases” (The Eighth Affiliated Hospital, Sun Yat-Sen University, priority 2023, published 2024):
# Tested on: IPF mice (C57BL/6, bleomycin)
# Assay: Bleomycin-induced idiopathic pulmonary fibrosis (IPF) mouse model
# Type: in vivo
# Description: A mouse model of […] was constructed by injecting bleomycin (2 mg/kg) into the lungs of the mice through the airway after anesthesia.
# (1) Sacrificing the mice after anesthesia, and weighing the lungs and recording as Mlung; {umlaut over (2)} weighing the empty 1.5 mL centrifuge tube, filling with normal saline and the recording the weight of the centrifuge tube again; calculating the exact volume of the tube (Vtube) based on the weight and density of normal saline; (3) completely immersing the lung tissue in the normal saline of the centrifuge tube, covering the lid of centrifuge tube after removing the air, wiping off the water stains around the tube, and recording the weight as M; (4) calculating the weight of normal saline in the tube: […]; (5) calculating the volume of normal saline in the tube: Vsaline=[…], wherein, ρsaline is the density of normal saline; (6) calculating lung volume: Vlung=Vtube−Vsaline; and (7) calculating lung density: μlung=Mlung/Vlung.
# The lung tissues were fixed by immersion in 4% paraformaldehyde and then gradiently dehydrated in 70% ethanol for 5 hours, 80% ethanol for 1 h, 90% ethanol for 1 h, 95% ethanol for 1 h, absolute ethanol for 1 h, absolute ethanol for 0.5 h, absolute ethanol+TO (1:1) for 1 h, TO for 1 h, TO for 1 h, paraffin (62° C.) for 1 h, paraffin (62° C.) for 1 h, paraffin (62° C.) for 1 h. After dehydration, the lung tissues were wrapped in the wax blocks and sectioned with a thickness of 4 μm. The paraffin sections were baked at 65° C. for 1 h and then exposed to xylene for 5 min, xylene for 5 min, absolute ethanol for 5 min, 95% ethanol for 5 min, 90% ethanol for 5 min, 85% ethanol for 5 min, 75% ethanol for 5 min; then, gently boiled in citric acid solution for 10 min and naturally cooled to room temperature, and exposed to 3% hydrogen peroxide for 10 min. The sections were blocked with goat antiserum for 1 h at room temperature, incubated overnight with primary antibodies against CD45 (abeam), CD3 (abeam) or CD68 (abeam), then washed 3 times with PBS for 5 min each time, and then incubated with immunohistochemical secondary antibodies (Fujian Maixin) at room temperature for 20 min. Then, the sections was subjected to color development for 2 min by using DAB chromogenic kit (Fujian Maixin), rinsed with water to remove DAB, stained with hematoxylin for 2 min and rinsed with running water for 8 minutes to return blue. After drying, the sections were sealed with neutral gum and photographed.
# In this example, the degree of fibrosis in lung tissue was detected through Masson staining, using the Masson trichrome staining kit (Fujian Maixin).
# To investigate whether C1632 can be used for the treatment of IPF, the inventors treated IPF mice with C1632 according to the method of FIG. 9A, and divided the mice into (1) normal mice+normal saline group; (2) normal mice+C1632 group; (3) IPF mice+normal saline group; and (4) IPF mice+C1632 group, each group had at least 4 mice. At the end of the experiment, the lung tissues of the mice were taken and photographed. […] The lungs of the model group are dark red, and some lung lobes are gray white, hardened, and scattered gray white plaques of different sizes could be seen.
smiles,measurement,setting,value
CC(=O)N(C)c1cccc(-c2ccc3nnc(C)n3n2)c1 [C1632],Lung density relative to water (lung lobes placed in water),"IPF mice + C1632, FIG. 9C",less dense than water
same,Lung density (drainage method),"IPF mice + C1632 vs IPF mice + saline, FIG. 9D",significantly reduced
same,"Lung shape, color and hardness (gross appearance)","IPF mice + C1632 vs control group, FIG. 9B",closer to those of the control group
same,"Infiltration of CD45 (total immune cells) in lung, IHC","IPF mice, injection of C1632, FIG. 10A, 10B",significantly reduces the infiltration of immune cells
same,"Infiltration of CD68 (macrophages) in lung, IHC","IPF mice, injection of C1632, FIG. 10A, 10C",significantly reduces the infiltration
same,"Infiltration of CD3 (T cells) in lung, IHC","IPF mice, injection of C1632, FIG. 10A, 10D",significantly reduces the infiltration
same,Hydroxyproline content in lung,"IPF mice, FIG. 9I",significantly inhibit the increase of hydroxyproline
same,"Alveolar architecture and fibrosis areas, H&E and Masson staining","lungs of C1632-treated IPF mice, FIG. 9E to 9G",more alveolar architecture and less fibrosis areas
